Patent US10610520B2, “Heterocyclic compound” (Takeda Pharmaceutical Company Limited, priority 2016, dated 2020)

These molecules were tested against T1, His-hMAGL (recombinant polyhistidine tagged human MAGL protein) (Homo sapiens, UniProt Q99685) (assay: Measurement of MAGL inhibitory activity (arachidonic acid production from 2-arachidonylglycerol, RapidFire-mass spectrometry)). Settings: MAGL inhibitory rate, test compound 10 μM, 60 min preincubation, 2-arachidonylglycerol substrate.
T1 construct: made in house; host or cells: E. coli BL21(DE3)
T1 sequence (Q99685 1-303): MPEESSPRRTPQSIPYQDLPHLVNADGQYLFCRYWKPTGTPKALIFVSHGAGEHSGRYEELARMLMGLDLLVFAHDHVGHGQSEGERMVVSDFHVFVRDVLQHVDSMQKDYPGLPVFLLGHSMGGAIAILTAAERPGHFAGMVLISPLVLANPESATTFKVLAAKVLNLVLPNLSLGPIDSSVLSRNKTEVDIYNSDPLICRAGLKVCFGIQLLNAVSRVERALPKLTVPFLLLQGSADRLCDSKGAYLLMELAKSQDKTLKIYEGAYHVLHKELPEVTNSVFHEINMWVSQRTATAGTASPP
Format: biochemical
In short: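 Arachidonic acid formed was quantified by online solid-phase extraction and triple-quadrupole MS in negative SRM mode against a d8 internal standard. Reaction: recombinant His-hMAGL (7.5 ng/mL, pH 7.5 Tris buffer with Triton X-100 and BSA) plus 2-AG (5 μL of 150 μM stock) for 10 min at room temperature, quenched with 2% formic acid. Percent inhibition corrected for enzyme-free background.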

**Q.** O=C1NC2(CO1)CN(C(=O)c1sc3cc(OC(F)F)ccc3c1Cl)C2 [Example 259, 2-((3-chloro-6-(difluoromethoxy)-1-benzothiophen-2-yl)carbonyl)-7-oxa-2,5-diazaspiro[3.4]octan-6-one] was tested. Which inhibition at 10 µM did it give?
**A.** The inhibition at 10 µM was 101%.

**Q.** How did the inhibition at 10 µM turn out when O=C1CCC2(CN(C(=O)c3sc4cc(OC(F)F)ccc4c3Cl)C2)N1 [Example 260, 2-((3-chloro-6-(difluoromethoxy)-1-benzothiophen-2-yl)carbonyl)-2,5-diazaspiro[3.4]octan-6-one] was run?
**A.** The inhibition at 10 µM was 100%.

**Q.** With O=C1NC2(CO1)CN(C(=O)c1sc3cc(OC(F)(F)F)ccc3c1C(F)(F)F)C2 [Example 261, 2-((6-(trifluoromethoxy)-3-(trifluoromethyl)-1-benzothiophen-2-yl)carbonyl)-7-oxa-2,5-diazaspiro[3.4]octan-6-one] as the molecule, how does the inhibition at 10 µM read?
**A.** Its inhibition at 10 µM is 100%.

**Q.** With O=C1NC2(CO1)CN(C(=O)c1sc3ccc(OC(F)(F)F)cc3c1Cl)C2 [Example 262, 2-((3-chloro-5-(trifluoromethoxy)-1-benzothiophen-2-yl)carbonyl)-7-oxa-2,5-diazaspiro[3.4]octan-6-one] as the molecule, how does the inhibition at 10 µM read?
**A.** The inhibition at 10 µM was 101%.

**Q.** With O=C1CCC2(CN(C(=O)c3sc4cc(OC(F)(F)F)ccc4c3C(F)(F)F)C2)N1 [Example 263, 2-((6-(trifluoromethoxy)-3-(trifluoromethyl)-1-benzothiophen-2-yl)carbonyl)-2,5-diazaspiro[3.4]octan-6-one] as the molecule, how does the inhibition at 10 µM read?
**A.** Its inhibition at 10 µM is 98%.

**Q.** For O=C1NC2(CO1)CN(C(=O)c1sc3cc(OC(F)(F)F)ccc3c1C(F)F)C2 [Example 264, 2-((3-(difluoromethyl)-6-(trifluoromethoxy)-1-benzothiophen-2-yl)carbonyl)-7-oxa-2,5-diazaspiro[3.4]octan-6-one], which inhibition at 10 µM is on record?
**A.** Its inhibition at 10 µM is 100%.

**Q.** How did the inhibition at 10 µM turn out when O=C1CCC2(CN(C(=O)c3sc4cc(OC(F)(F)F)ccc4c3C(F)F)C2)N1 [Example 265, 2-((3-(difluoromethyl)-6-(trifluoromethoxy)-1-benzothiophen-2-yl)carbonyl)-2,5-diazaspiro[3.4]octan-6-one] was run?
**A.** The inhibition at 10 µM was 97%.

**Q.** How did the inhibition at 10 µM turn out when O=C1NC2(CO1)CN(C(=O)c1sc3cccc(OC(F)(F)F)c3c1Cl)C2 [Example 266, 2-((3-chloro-4-(trifluoromethoxy)-1-benzothiophen-2-yl)carbonyl)-7-oxa-2,5-diazaspiro[3.4]octan-6-one] was run?
**A.** The inhibition at 10 µM was 101%.

**Q.** How did the inhibition at 10 µM turn out when O=C1NC2(CO1)CN(C(=O)c1sc3c(OC(F)(F)F)ccc(F)c3c1Cl)C2 [Example 267, 2-((3-chloro-4-fluoro-7-(trifluoromethoxy)-1-benzothiophen-2-yl)carbonyl)-7-oxa-2,5-diazaspiro[3.4]octan-6-one] was run?
**A.** The inhibition at 10 µM was 101%.

**Q.** How did the inhibition at 10 µM turn out when O=C1NC2(CO1)CN(C(=O)c1sc3cccc(C(F)(F)F)c3c1Cl)C2 [Example 268, 2-((3-chloro-4-(trifluoromethyl)-1-benzothiophen-2-yl)carbonyl)-7-oxa-2,5-diazaspiro[3.4]octan-6-one] was run?
**A.** Its inhibition at 10 µM is 102%.

**Q.** With O=C1NC2(CO1)CN(C(=O)c1sc3cc(OC(F)(F)F)cc(F)c3c1Cl)C2 [Example 269, 2-((3-chloro-4-fluoro-6-(trifluoromethoxy)-1-benzothiophen-2-yl)carbonyl)-7-oxa-2,5-diazaspiro[3.4]octan-6-one] as the molecule, how does the inhibition at 10 µM read?
**A.** The inhibition at 10 µM was 100%.

**Q.** COc1c(C(=O)N2CC3(COC(=O)N3)C2)sc2c(C(F)(F)F)cccc12 [Example 270, 2-((3-methoxy-7-(trifluoromethyl)-1-benzothiophen-2-yl)carbonyl)-7-oxa-2,5-diazaspiro[3.4]octan-6-one] was tested. Which inhibition at 10 µM did it give?
**A.** Its inhibition at 10 µM is 100%.

**Q.** With O=C1NC2(CO1)CN(C(=O)c1sc3c(C(F)(F)F)cccc3c1OCC(F)(F)F)C2 [Example 271, 2-((3-(2,2,2-trifluoroethoxy)-7-(trifluoromethyl)-1-benzothiophen-2-yl)carbonyl)-7-oxa-2,5-diazaspiro[3.4]octan-6-one] as the molecule, how does the inhibition at 10 µM read?
**A.** Its inhibition at 10 µM is 100%.

**Q.** Which inhibition at 10 µM does the source give for O=C1NC2(CO1)CN(C(=O)c1sc3c(C(F)(F)F)cccc3c1OC(F)F)C2 [Example 272, 2-((3-(difluoromethoxy)-7-(trifluoromethyl)-1-benzothiophen-2-yl)carbonyl)-7-oxa-2,5-diazaspiro[3.4]octan-6-one] here?
**A.** Its inhibition at 10 µM is 100%.

**Q.** With O=C1COCC2(CCN(C(=O)c3sc4cc(OC(F)(F)F)ccc4c3Cl)C2)N1 (stereo not drawn) [Example 273, 2-((3-chloro-6-(trifluoromethoxy)-1-benzothiophen-2-yl)carbonyl)-9-oxa-2,6-diazaspiro[4.5]decan-7-one] as the molecule, how does the inhibition at 10 µM read?
**A.** Its inhibition at 10 µM is 100%.

**Q.** With CC1(c2cccc(-c3ccc(C(=O)N4CC5(COC(=O)N5)C4)cc3F)c2)CC1 [Example 274, 2-((2-fluoro-3′-(1-methylcyclopropyl)biphenyl-4-yl)carbonyl)-7-oxa-2,5-diazaspiro[3.4]octan-6-one] as the molecule, how does the inhibition at 10 µM read?
**A.** Its inhibition at 10 µM is 101%.

**Q.** How did the inhibition at 10 µM turn out when O=C1NC2(CO1)CN(C(=O)c1sc3ccc(C(F)(F)F)cc3c1C(F)F)C2 [Example 275, 2-((3-(difluoromethyl)-5-(trifluoromethyl)-1-benzothiophen-2-yl)carbonyl)-7-oxa-2,5-diazaspiro[3.4]octan-6-one] was run?
**A.** The inhibition at 10 µM was 100%.

**Q.** With O=C1COCC2(CCN(C(=O)N3CCC(COc4ccc(F)cc4Cl)CC3)C2)N1 (stereo not drawn) [Example 276, 2-((4-((2-chloro-4-fluorophenoxy)methyl)piperidin-1-yl)carbonyl)-9-oxa-2,6-diazaspiro[4.5]decan-7-one] as the molecule, how does the inhibition at 10 µM read?
**A.** The inhibition at 10 µM was 99%.

**Q.** O=C1NC2(CO1)CN(C(=O)c1sc3c(C(F)(F)F)cccc3c1C(F)F)C2 [Example 277, 2-((3-(difluoromethyl)-7-(trifluoromethyl)-1-benzothiophen-2-yl)carbonyl)-7-oxa-2,5-diazaspiro[3.4]octan-6-one] was tested. Which inhibition at 10 µM did it give?
**A.** The inhibition at 10 µM was 101%.

**Q.** For O=C1NC2(CO1)CN(C(=O)c1sc3cc(C(F)F)ccc3c1Cl)C2 [Example 278, 2-((3-chloro-6-(difluoromethyl)-1-benzothiophen-2-yl)carbonyl)-7-oxa-2,5-diazaspiro[3.4]octan-6-one], which inhibition at 10 µM is on record?
**A.** The inhibition at 10 µM was 101%.

**Q.** Which inhibition at 10 µM does the source give for O=C1NC2(CO1)CN(C(=O)c1sc3c(F)c(OC(F)(F)F)ccc3c1Cl)C2 [Example 279, 2-((3-chloro-7-fluoro-6-(trifluoromethoxy)-1-benzothiophen-2-yl)carbonyl)-7-oxa-2,5-diazaspiro[3.4]octan-6-one] here?
**A.** Its inhibition at 10 µM is 100%.

**Q.** For O=C1NC2(CO1)CN(C(=O)c1sc3cc(OC(F)(F)F)c(F)cc3c1Cl)C2 [Example 280, 2-((3-chloro-5-fluoro-6-(trifluoromethoxy)-1-benzothiophen-2-yl)carbonyl)-7-oxa-2,5-diazaspiro[3.4]octan-6-one], which inhibition at 10 µM is on record?
**A.** The inhibition at 10 µM was 101%.

**Q.** CC1(c2cccc(-c3cc(Cl)c(C(=O)N4CC5(COC(=O)N5)C4)s3)c2)CC1 [Example 281, 2-((3-chloro-5-(3-(1-methylcyclopropyl)phenyl)-2-thienyl)carbonyl)-7-oxa-2,5-diazaspiro[3.4]octan-6-one] was tested. Which inhibition at 10 µM did it give?
**A.** Its inhibition at 10 µM is 100%.

**Q.** For O=C1NC2(CCO1)CN(C(=O)c1sc3cc(OC(F)(F)F)ccc3c1Cl)C2 [Example 282, 2-((3-chloro-6-(trifluoromethoxy)-1-benzothiophen-2-yl)carbonyl)-7-oxa-2,5-diazaspiro[3.5]nonan-6-one], which inhibition at 10 µM is on record?
**A.** Its inhibition at 10 µM is 99%.

**Q.** Which inhibition at 10 µM does the source give for O=C1NC2(CCO1)CN(C(=O)c1sc3cccc(OC(F)(F)F)c3c1Cl)C2 [Example 283, 2-((3-chloro-4-(trilfuoromethoxy)-1-benzothiophen-2-yl)carbonyl)-7-oxa-2,5-diazaspiro[3.5]nonan-6-one] here?
**A.** Its inhibition at 10 µM is 99%.

**Q.** How did the inhibition at 10 µM turn out when COc1cc(F)c2c(Cl)c(C(=O)N3CC4(COC(=O)N4)C3)sc2c1 [Example 284, 2-((3-chloro-4-fluoro-6-methoxy-1-benzothiophen-2-yl)carbonyl)-7-oxa-2,5-diazaspiro[3.4]octan-6-one] was run?
**A.** Its inhibition at 10 µM is 101%.

**Q.** Which inhibition at 10 µM does the source give for O=C1NC2(CO1)CN(C(=O)c1sc3cc(Br)cc(F)c3c1Cl)C2 [Example 285, 2-((6-bromo-3-chloro-4-fluoro-1-benzothiophen-2-yl)carbonyl)-7-oxa-2,5-diazaspiro[3.4]octan-6-one] here?
**A.** The inhibition at 10 µM was 100%.

**Q.** How did the inhibition at 10 µM turn out when Cc1c(OC(F)(F)F)ccc2c(Cl)c(C(=O)N3CC4(COC(=O)N4)C3)sc12 [Example 286, 2-((3-chloro-7-methyl-6-(trifluoromethoxy)-1-benzothiophen-2-yl)carbonyl)-7-oxa-2,5-diazaspiro[3.4]octan-6-one] was run?
**A.** Its inhibition at 10 µM is 100%.

**Q.** With O=C1NC2(CO1)CN(C(=O)c1sc3cc(OCC(F)(F)F)ccc3c1Cl)C2 [Example 287, 2-((3-chloro-6-(2,2,2-trifluoroethoxy)-1-benzothiophen-2-yl)carbonyl)-7-oxa-2,5-diazaspiro[3.4]octan-6-one] as the molecule, how does the inhibition at 10 µM read?
**A.** Its inhibition at 10 µM is 101%.

**Q.** O=C1NC2(CO1)CN(C(=O)c1sc3ccccc3c1Cl)C2 [Example 288, 2-((3-chloro-1-benzothiophen-2-yl)carbonyl)-7-oxa-2,5-diazaspiro[3.4]octan-6-one] was tested. Which inhibition at 10 µM did it give?
**A.** Its inhibition at 10 µM is 100%.

**Q.** With O=C1NC2(CO1)CN(C(=O)c1sc3cccc(Cl)c3c1Cl)C2 [Example 289, 2-((3,4-dichloro-1-benzothiophen-2-yl)carbonyl)-7-oxa-2,5-diazaspiro[3.4]octan-6-one] as the molecule, how does the inhibition at 10 µM read?
**A.** Its inhibition at 10 µM is 101%.

**Q.** Which inhibition at 10 µM does the source give for O=C1NC2(CO1)CN(C(=O)c1sc3c(Cl)c(OC(F)(F)F)ccc3c1Cl)C2 [Example 290, 2-((3,7-dichloro-6-(trifluoromethoxy)-1-benzothiophen-2-yl)carbonyl)-7-oxa-2,5-diazaspiro[3.4]octan-6-one] here?
**A.** The inhibition at 10 µM was 101%.

**Q.** Which inhibition at 10 µM does the source give for O=C1NC2(CO1)CN(C(=O)c1sc3cc(C(F)F)cc(C(F)(F)F)c3c1Cl)C2 [Example 291, 2-((3-chloro-6-(difluoromethyl)-4-(trifluoromethyl)-1-benzothiophen-2-yl)carbonyl)-7-oxa-2,5-diazaspiro[3.4]octan-6-one] here?
**A.** The inhibition at 10 µM was 101%.
